From US10899737B2, “Piperazine carbamates and methods of making and using same” (Lundbeck La Jolla Research Center, Inc., priority 2016, dated 2021)

What was measured:
MAGL [1] = molecular target: T1, MAGL (Mus musculus, UniProt O35678); experiment: Mouse brain proteomes from inhibitor treated mice, MAGL inhibition; type: in vivo; settings: 5 mg/kg oral gavage, C57Bl/6J mouse brain, 4 h following administration; read-out: MAGL % inh. 5 mg/kg (mouse)
T1 construct: Proteomes (mouse brain membrane fraction or cell lysates); from tissue; host or cells: mouse brain membrane fraction or cell lysates
T1 sequence (O35678 1-303): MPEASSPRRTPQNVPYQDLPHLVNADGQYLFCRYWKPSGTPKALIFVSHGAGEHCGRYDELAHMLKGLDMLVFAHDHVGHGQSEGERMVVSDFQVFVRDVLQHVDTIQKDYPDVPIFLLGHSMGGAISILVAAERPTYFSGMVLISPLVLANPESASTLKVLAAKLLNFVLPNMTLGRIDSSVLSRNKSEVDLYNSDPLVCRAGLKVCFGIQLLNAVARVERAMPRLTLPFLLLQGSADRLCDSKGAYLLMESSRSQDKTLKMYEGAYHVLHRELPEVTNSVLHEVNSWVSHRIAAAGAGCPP
Description: Preparation of Mouse Brain Proteomes from Inhibitor Treated Mice.
Inhibitors were administered to wild-type C57Bl/6J by oral gavage in a vehicle of polyethylene glycol. Each animal was sacrificed 4 h following administration and brain proteomes were prepared and analyzed according to previously established methods (See Niphakis, M. J., et al. (2011) ACS Chem. Neurosci. and Long, J. Z., et al. Nat. Chem. Biol. 5:37-44).

MAGL [2] = molecular target: T1, MAGL; experiment: In vitro competitive activity-based protein profiling (mouse), MAGL; type: biochemical; settings: 1 μM inhibitor, mouse brain membrane fraction or cell lysates; read-out: MAGL % inh. 1 μM (mouse)
How it was run: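 Mouse brain membrane fraction or cell lysate proteomes (50 μL, 1.0 mg/mL total protein) were preincubated with inhibitors at varying concentrations for 30 min at 37° C. FP-Rh (1.0 μL, 50 μM in DMSO) was then added for a further 30 min at 37° C. Samples were quenched with 4× SDS loading buffer and resolved by SDS-PAGE. MAGL activity was quantified from fluorescent gel band intensity using ImageJ 1.49 k.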

ABHD6 [3] = molecular target: T2, ABHD6 (Homo sapiens, UniProt Q9BV23); experiment: In vitro competitive activity-based protein profiling (human), ABHD6; type: biochemical; settings: human PC3
T2 construct: Proteomes (human prefrontal cortex or cell membrane fractions); endogenous in cells; human prefrontal cortex
T2 sequence (Q9BV23 1-337): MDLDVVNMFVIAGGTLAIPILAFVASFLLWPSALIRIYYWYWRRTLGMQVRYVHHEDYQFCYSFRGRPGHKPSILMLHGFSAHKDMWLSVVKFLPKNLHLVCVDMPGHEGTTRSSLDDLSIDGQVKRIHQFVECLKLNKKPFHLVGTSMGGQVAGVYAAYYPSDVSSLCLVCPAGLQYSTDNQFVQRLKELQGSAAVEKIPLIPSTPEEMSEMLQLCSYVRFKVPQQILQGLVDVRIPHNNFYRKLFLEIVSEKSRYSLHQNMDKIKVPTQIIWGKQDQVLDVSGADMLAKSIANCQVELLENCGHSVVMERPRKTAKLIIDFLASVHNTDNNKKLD
How it was run: (§1)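 Human prefrontal cortex or cell membrane proteomes (1.0-2.0 mg/mL protein) preincubated 30 min at 37° C with inhibitor, then labeled 30 min RT with FP-Rh or JW912 probe. After SDS-PAGE, activity taken from fluorescent band intensity for each enzyme.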

ABHD6 [4] = molecular target: T3, ABHD6 (Mus musculus, UniProt Q8R2Y0); experiment: In vitro competitive activity-based protein profiling (mouse), ABHD6; type: biochemical; settings: 1 μM inhibitor, mouse brain membrane fraction or cell lysates; read-out: ABHD6 % inh. 1 μM (mouse)
T3 construct: Proteomes (mouse brain membrane fraction or cell lysates); from tissue; host or cells: mouse brain membrane fraction or cell lysates
T3 sequence (Q8R2Y0 1-336): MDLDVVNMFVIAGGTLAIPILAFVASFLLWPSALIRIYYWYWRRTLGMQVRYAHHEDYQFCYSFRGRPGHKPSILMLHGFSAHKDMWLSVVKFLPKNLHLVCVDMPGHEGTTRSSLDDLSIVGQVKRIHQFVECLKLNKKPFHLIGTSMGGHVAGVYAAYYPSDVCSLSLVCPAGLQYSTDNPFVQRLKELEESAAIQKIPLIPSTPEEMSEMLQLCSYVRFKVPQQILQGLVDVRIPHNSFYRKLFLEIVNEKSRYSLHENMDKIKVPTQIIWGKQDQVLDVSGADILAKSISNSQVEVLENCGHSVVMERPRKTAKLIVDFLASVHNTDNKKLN
How it was run: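 Mouse brain membrane proteome or cell lysate (1.0 mg/mL protein) preincubated 30 min at 37 °C with inhibitor, then labelled 30 min at 37 °C with FP-rhodamine probe. Remaining MAGL and ABHD6 activity quantified by in-gel fluorescence band intensity after SDS-PAGE; values are % inhibition at 1 μM.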

MAGL [5] = molecular target: T4, MAGL (Homo sapiens, UniProt Q99685); experiment: In vitro competitive activity-based protein profiling (human), MAGL; type: biochemical
T4 construct: Proteomes (human prefrontal cortex or cell membrane fractions); from tissue
T4 sequence (Q99685 1-303): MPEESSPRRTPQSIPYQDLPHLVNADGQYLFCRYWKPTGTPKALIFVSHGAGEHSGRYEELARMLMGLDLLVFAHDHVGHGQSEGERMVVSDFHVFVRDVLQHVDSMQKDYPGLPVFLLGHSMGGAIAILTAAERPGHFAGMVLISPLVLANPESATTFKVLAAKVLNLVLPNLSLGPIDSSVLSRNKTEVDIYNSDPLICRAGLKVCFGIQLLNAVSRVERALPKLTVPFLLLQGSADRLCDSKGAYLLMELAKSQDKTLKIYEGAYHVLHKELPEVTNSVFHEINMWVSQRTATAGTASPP
How it was run: as §1

- inhibition at 5 mg/kg (MAGL [1]): ≥ 75%
- inhibition at 1 µM (MAGL [2]): ≥ 75%
- IC50 (ABHD6 [3]): 1 to 10 µM
- inhibition at 1 µM (ABHD6 [4]): ≥ 75%
- inhibition at 1 µM (MAGL [5]; 1 μM inhibitor, human proteome, 30 min preincubation at 37° C, read-out: MAGL % inh. 1 μM (human)): ≥ 75%
- IC50 (MAGL [5]; human PC3): ≤ 0.1 µM
SMILES: O=C(O)C1CCN(c2cc(S(F)(F)(F)(F)F)ccc2CN2CCN(C(=O)OC(C(F)(F)F)C(F)(F)F)CC2)CC1 [Example 78, 1-(2-((4-(((1,1,1,3,3,3-hexafluoropropan-2-yl)oxy)carbonyl)piperazin-1-yl)methyl)-5-(pentafluoro-16-sulfaneyl)phenyl)piperidine-4-carboxylic acid]
